Test results published in PMC8524809 (Molecular Therapy, 2021).

Key:
[1] = cited from earlier work
[2] = in vitro; settings: human

CC(C)(O)c1ccccc1CC[C@@H](SCC1(CC(=O)O)CC1)c1cccc(/C=C/c2ccc3ccc(Cl)cc3n2)c1 [montelukast]
Side effects / tolerability ([1]; all doses 10 mg/day to 200 mg/day, ref 23 (Altman et al.)): no significant clinical or laboratory side effects
Toxicity tolerance ([1]; high doses (i.e., 200 mg/day)): toxicity tolerance is high
viability [2]: 86 to 90%
